Test results reported in patent US20190307691A1, “HYDROGELS WITH LIPOSOMES FOR CONTROLLED RELEASE OF DRUGS” (NORTHERN ILLINOIS RESEARCH FOUNDATION, priority 2018, published 2019).

Tests used:
[1] = Differential scanning calorimetry for thermal stability; conditions: DSC, measure of thermal stability
Protocol: Differential scanning calorimetry (DSC) was used to investigate the thermal stability as well as interaction between liposomes and entrapped protein.
For thermal stability analysis of liposomes and encapsulated protein, two mg of standard lipids, protein and liposome samples were loaded in aluminum pans along with the standard reference aluminum in the differential scanning calorimeter (Shimadzu DSC 60). The thermal profiles were recorded between 10° C. and 180° C. at a scan rate of 15° C./min for three cycles.

[2] = test system: RPE cells; conditions: 2.5 mg/ml; cited from earlier work
[3] = test system: ARPE-19 cells; assay: MTT cell viability with Avastin and Avastin liposomes; format: cell-based; conditions: exposed to 2 mg of the antibody
Protocol: ARPE-19 cells purchased from American Type Culture Collection were used. […] Cells were plated in 12-well plates with an initial seeding density of 5×10^4 cells per ml in each plate. Cells were grown to confluency for 4 days prior to experimentation; 12-well plates were used for MTT assays. 1.5 ml of 25 mg/ml Avastin solution was sterile filtered to create a stock solution that was transferred to a sterile centrifuge tube. Each well of the 12 well plate had its media aspirated out and was then rinsed with buffer which was also aspirated out. […] Enough media was added to each well to create a total volume of 1 ml in each well. […] 1.3 ml of 10% MTT 5 mg/ml in PBS and 11.7 ml of 90% media (with phenol red) was used. MTT in PBS was added to the media in a centrifuge tube and then sterile filtered. The filtered mixture was then plated on the 12 well plate (1 ml per well). The plate was then incubated for 90 minutes. After incubation, the MTT media was aspirated. 1 ml of DMSO per well was added. The MTT assay was read at 560 nm.

[4] = cited from earlier work
[5] = Intravitreal drug release and toxicity in rabbit's eye (Fluorotron, ELISA, histopathology); format: in vivo, Oryctolagus cuniculus (Dutch belted rabbits); conditions: single intravitreal injection
Protocol: The efficacy of the liposomes and the combination product has been tested using rabbit models. The experimental design of this experiment involving Oryctolagus cuniculus (Dutch belted rabbits) was approved by the Northern Illinois University Institutional Animal Care and Use Committee (IACUC) and is as follows. Rabbits were divided into 4 groups and each rabbit was injected with the formulation in the right eye using left eye as control.
Drug release profiles in the rabbit's eye over a period of time was measured non-invasively using the Fluorotron. […] Light re-emitted (reflection and fluorescence) by the fluorescent tag on the protein is sampled from the 1.9×0.1 mm slit, aligned to the excitation and defined by an aperture Rd (which is confocal to Re). […] The configuration of these pupils is in the plane of the subject's pupil minimizes contributions from the fluorescence outside of the measurement point by separating the excitation and detection paths. Another band-pass filter rejects reflected excitation light, and the fluorescence collected by aperture Rd is detected using a red-extended end-on photomultiplier tube selected for low (<100 count/sec.) dark noise. As the focus lens is driven forward the emission signal is continuously monitored from retina to cornea, giving an intensity output. […]

[6] = oral, in the absence of decarboxylase inhibitors; cited from earlier work
[7] = cited from earlier work; remark: listed apart in the source
[8] = L-DOPA oxidation in solution (UV-Vis, LC/MS); format: physicochemical
Protocol: The solution was stored with minimal exposure to light. […] In order to accelerate the complete oxidation of L-DOPA starting material, the substance was reacted in at pH 10. […] These hydrophobic oxidation products were separated and collected for in vitro experiments with epithelialcells.
LC/MS analysis was performed using an LCQ Advantage Mass Spectrometer System with a Surveyor LC Pump and PDA Detector (Thermo Finnigan). Separations were performed on a 100 mm×3.0 mm Kinetex C18 column. Mobile phase was 0.1% formic acid in MeOH (B) balanced with water. […] Absorbance was monitored at 280 and 320 nm. For ESI-MS conditions, capillary temperature was 200° C. and spray voltage was set to 4.5 kV. […] Full spectra were collected between m/z range of 200-1000.

Molecule: CC(C)CCC[C@@H](C)[C@H]1CC[C@H]2[C@@H]3CC=C4C[C@@H](O)CC[C@]4(C)[C@H]3CC[C@]12C [Cholesterol]
- Melting temperature, Tm [1]: ~154° ° C.

Molecule: CCCCCCCC/C=C\CCCCCCCC(=O)OC[C@H](COP(=O)(O)OCCN)OC(=O)CCCCCCC/C=C\CCCCCCCC [DOPE]
- Melting temperature, Tm [1]: ~63° ° C.

Molecule: CCCCCCCCCCCCCCCCCC(=O)OCC(COP(=O)(O)OCC(O)CO)OC(=O)CCCCCCCCCCCCCCCCC (stereo not drawn) [DSPG]
- Melting temperature, Tm [1]: ~40° ° C.

Molecule: CCCCCCCCCCCCCC(=O)OC[C@H](COP(=O)([O-])OCC[N+](C)(C)C)OC(=O)CCCCCCCCCCCCC [DMPC]
- Melting temperature, Tm [1]: ~42° ° C.

Molecule: Bevacizumab: anti-VEGF antibody, anti-angiogenic agent
- effect on RPE cells [2]: cytotoxic effects
- cell viability (MTT) [3]: decreased slightly
- intravitreal half-life ([4]; intravitreal): about 4.32 days
- concentration in the vitreous ([4]; maintained over a period of 30 days): about 10 μg/ml
- Time of release of a therapeutic concentrate [5]: 5 weeks

Molecule: N[C@@H](Cc1ccc(O)c(O)c1)C(=O)O [L-DOPA]
- unmetabolized drug reaching the brain [6]: less than 1%
- drug oxidized to melanin ([7]; after 24 hr in neutral pH): 47%
- drug oxidized ([7]; under basic conditions): at least 50.9%
- oxidation of L-DOPA ([8]; PBS pH 7.4, after 3 days, minimal exposure to light): does not undergo complete oxidation
- oxidation of L-DOPA ([8]; pH 7.4 solution, after 35 days): substantial oxidation
- oxidation of L-DOPA ([8]; pH 10, after 24 hours): completely consumed
